How the values were obtained:
MMP9 (Q279R) = MMP9 (Q279R) (Homo sapiens, UniProt P14780, Q279R); assay: MMP inhibition FRET assay, MMP-9; type: biochemical; conditions: 390 MMP FRET Substrate I, room temperature, 30 minutes, duplicate
Method: (§1) Serial dilutions of a compound were prepared with 10% DMSO and 5 μL of the dilution was added to a 50 μL reaction so that the final concentration of DMSO is 1% in all of reactions.
(§2) The enzymes were diluted in 50 mM HEPES buffer pH 7.4, 10 mM CaCl2, 0.05% Brij-35, and 1 mM APMA for activation at 37° C. for 2 hours.
(§3) […] activity assays were performed in duplicate at each concentration. The fluorescent intensity data were analyzed using the computer software, Graphpad Prism. In the absence of the compound, the fluorescent intensity (Ft) in each data set was defined as 100% activity. In the absence of enzyme, the fluorescent intensity (Fb) in each data set was defined as 0% activity. The percent activity in the presence of each compound was calculated according to the following equation: %activity=(F−Fb)/(Ft−Fb), where F=the fluorescent intensity in the presence of the compound.
(§4) The values of % activity versus a series of compound concentrations were then plotted using non-linear regression analysis of Sigmoidal dose-response curve generated with the equation Y=B+(T−B)/1+10^((Log EC50−X)×Hill Slope), where Y=percent activity, B=minimum percent activity, T=maximum percent activity, X=logarithm of compound and Hill Slope=slope factor or Hill coefficient. The IC50 value was determined by the concentration causing a half-maximal percent activity.

MMP-2 = target: T1, MMP-2 (Homo sapiens, UniProt P08253); assay: MMP inhibition FRET assay, MMP-2; type: biochemical; conditions: 390 MMP FRET Substrate I, room temperature, 30 minutes, duplicate; read-out: IC50 MMP2
T1 sequence (P08253 110-660): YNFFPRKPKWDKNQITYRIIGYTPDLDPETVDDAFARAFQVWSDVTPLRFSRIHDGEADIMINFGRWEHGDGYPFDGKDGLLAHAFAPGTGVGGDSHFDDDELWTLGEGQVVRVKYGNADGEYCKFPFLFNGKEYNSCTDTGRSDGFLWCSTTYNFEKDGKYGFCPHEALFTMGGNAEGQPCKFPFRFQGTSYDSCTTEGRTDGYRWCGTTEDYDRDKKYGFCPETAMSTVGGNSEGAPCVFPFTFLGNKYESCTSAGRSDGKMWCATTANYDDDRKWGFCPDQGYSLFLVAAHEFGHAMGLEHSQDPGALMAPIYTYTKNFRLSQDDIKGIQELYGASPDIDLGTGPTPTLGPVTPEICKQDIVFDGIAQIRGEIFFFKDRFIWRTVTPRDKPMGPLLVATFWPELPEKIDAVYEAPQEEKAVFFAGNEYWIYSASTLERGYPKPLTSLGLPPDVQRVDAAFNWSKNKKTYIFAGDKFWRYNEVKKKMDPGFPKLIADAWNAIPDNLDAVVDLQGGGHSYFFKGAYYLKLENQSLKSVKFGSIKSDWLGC
Method: as §1, §2, §3, §4

Chain of MMP9 (Q279R) (P14780 107-707 Q279R limits assumed): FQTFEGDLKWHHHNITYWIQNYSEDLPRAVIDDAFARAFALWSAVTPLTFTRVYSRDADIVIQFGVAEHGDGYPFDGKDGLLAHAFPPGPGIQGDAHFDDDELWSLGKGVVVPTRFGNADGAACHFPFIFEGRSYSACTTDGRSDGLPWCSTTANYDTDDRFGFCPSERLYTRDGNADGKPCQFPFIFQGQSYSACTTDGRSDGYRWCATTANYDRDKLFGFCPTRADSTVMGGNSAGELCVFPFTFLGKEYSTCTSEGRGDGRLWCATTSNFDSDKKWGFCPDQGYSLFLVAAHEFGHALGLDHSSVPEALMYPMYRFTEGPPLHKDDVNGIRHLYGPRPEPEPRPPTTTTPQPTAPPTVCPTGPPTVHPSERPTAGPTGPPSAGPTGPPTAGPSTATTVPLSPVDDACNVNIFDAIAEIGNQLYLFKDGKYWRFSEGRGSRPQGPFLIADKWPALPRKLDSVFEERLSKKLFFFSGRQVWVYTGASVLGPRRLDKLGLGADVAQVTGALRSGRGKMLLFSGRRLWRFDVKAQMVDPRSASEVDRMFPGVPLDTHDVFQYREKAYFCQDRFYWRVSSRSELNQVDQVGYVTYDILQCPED

**Q.** Which results are given for `COc1ccc(S(=O)(=O)N(CC(=O)NO)CC(C)C)cc1` [NNGH, N-Isobutyl-N-(4-methoxyphenylsulfonyl)glycyl Hydroxamic Acid]?
**A.** IC50 (MMP9 (Q279R)): 4 nM; IC50 (MMP-2): 4 nM

Reference: patent US20220227792A1, “CARBORANE HYDROXAMIC ACID MATRIX METALLOPROTEINASE AGENTS FOR BORON NEUTRON CAPTURE THERAPY” (LOYOLA UNIVERSITY OF CHICAGO, priority 2019, published 2022)
